According to publication PMC7554770, “Develop a High-Throughput Screening Method to Identify C-P4H1 (Collagen Prolyl 4-Hydroxylase 1) Inhibitors from FDA-Approved Chemicals” (International Journal of Molecular Sciences, 2020):

Experiments:
Assay type in all cases: biochemical
[1] = molecular target: T1, C-P4H1 (collagen prolyl 4-hydroxylase 1; P4HA1 alpha subunit) (Homo sapiens, UniProt P13674); test: Succinate-Glo Hydroxylase luminescence assay, dose response, with no-enzyme control
T1 construct: Flag-tagged P4HA1 and P4HB co-expressed in HEK-293FT cells, purified C-P4H1 tetramer; with P4HB (protein disulfide isomerase, beta subunit)

[2] = molecular target: T1, C-P4H1 (collagen prolyl 4-hydroxylase 1; P4HA1 alpha subunit); test: as above; remark: listed apart in the source
[3] = molecular target: T1, C-P4H1 (collagen prolyl 4-hydroxylase 1; P4HA1 alpha subunit); test: Succinate-Glo Hydroxylase assay, varied co-substrate concentration

T1 sequence (P13674 18-534): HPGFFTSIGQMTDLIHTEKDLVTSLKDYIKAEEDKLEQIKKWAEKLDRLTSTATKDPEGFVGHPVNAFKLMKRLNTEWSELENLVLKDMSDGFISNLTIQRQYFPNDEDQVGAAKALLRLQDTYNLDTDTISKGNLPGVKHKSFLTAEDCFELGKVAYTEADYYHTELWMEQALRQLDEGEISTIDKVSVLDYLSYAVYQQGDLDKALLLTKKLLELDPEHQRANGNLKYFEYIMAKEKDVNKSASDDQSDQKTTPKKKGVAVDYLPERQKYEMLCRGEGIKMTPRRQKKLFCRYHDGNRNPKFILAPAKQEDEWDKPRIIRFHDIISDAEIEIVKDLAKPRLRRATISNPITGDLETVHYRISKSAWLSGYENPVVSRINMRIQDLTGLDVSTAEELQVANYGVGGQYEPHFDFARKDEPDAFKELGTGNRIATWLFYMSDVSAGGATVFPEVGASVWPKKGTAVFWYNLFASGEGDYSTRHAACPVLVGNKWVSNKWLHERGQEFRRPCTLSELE
T1 sequence (P07237 18-508 partner): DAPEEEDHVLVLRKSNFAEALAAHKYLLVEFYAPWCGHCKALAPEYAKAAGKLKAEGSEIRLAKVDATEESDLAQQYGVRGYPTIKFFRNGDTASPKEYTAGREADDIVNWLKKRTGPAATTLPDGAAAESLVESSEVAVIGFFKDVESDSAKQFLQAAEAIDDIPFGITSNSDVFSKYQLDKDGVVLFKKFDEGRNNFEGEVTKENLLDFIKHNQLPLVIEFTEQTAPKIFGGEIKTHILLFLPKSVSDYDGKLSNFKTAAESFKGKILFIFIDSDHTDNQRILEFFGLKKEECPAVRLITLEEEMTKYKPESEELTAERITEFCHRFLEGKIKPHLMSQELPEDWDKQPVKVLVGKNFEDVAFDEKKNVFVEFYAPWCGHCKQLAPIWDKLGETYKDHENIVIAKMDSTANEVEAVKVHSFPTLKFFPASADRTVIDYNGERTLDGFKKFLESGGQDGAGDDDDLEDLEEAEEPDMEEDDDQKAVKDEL

| SMILES | Succinate-Glo Hydroxylase luminescence assay, dose response, with no-enzyme cont [2] | also measured |
| --- | --- | --- |
| CCOC(=O)c1ccc(O)c(O)c1 [DHB, ethyl-3,4-dihydroxybenzoic acid] | – | IC50 [1]: ~20 µM |
| C[C@H](Cc1cc2c(c(C(N)=O)c1)N(CCCO)CC2)NCCOc1ccccc1OCC(F)(F)F [Silodosin] | Both drugs inhibited C-P4H1 activity in a dose-dependent manner (Figure 4B,D). | – |
| Clc1ccccc1CN1CCc2sccc2C1 [Ticlopidine] | indicating that Silodosin and Ticlopidine specifically inhibited the C-P4H1 activity in vitro | – |
| O=C(O)CCC(=O)C(=O)O [α-KG, α-ketoglutarate] | – | Succinate-Glo Hydroxylase assay, varied co-substrate concentration [3]: increased concentration of GPPG and α-KG induced luminescence assay in a dose-dependent manner |
